Reference: ChEMBL document CHEMBL5120822, “Inhibition of the P2X7/NLRP3 Inflammasome Signaling Pathway by Deacetylgedunin from Toona sinensis” (J Nat Prod, 2022)
Active and inactive are the calls of the source. No cut-off for these calls is given here.

Columns and labels:
RAW264.7 [1] = experiment: Cytotoxicity against mouse RAW264.7 cells derived macrophage assessed as reduction in cell viability upto 40 uM incubated for 24 hrs by CCK-8 assay; assay type: toxicity, cell-based; conditions: raw264.7, 24 h
THP-1 [2] = experiment: Antiinflammatory activity against PMA-differentiated human THP-1 cells assessed as reduction in IL-1beta level at 20 uM incubated for 1 hrs followed by LPS stimulation for 12 hrs and ATP addition for 0.5 hrs by ELISA; assay type: functional, cell-based; conditions: time 13.5 hrs
J774.1 = experiment: Cytotoxicity against mouse J774.1 cells derived macrophage assessed as reduction in cell viability upto 40 uM incubated for 24 hrs by CCK-8 assay; assay type: toxicity, cell-based; conditions: j774.1, 24 h
RAW264.7 [3] = experiment: Antiinflammatory activity in mouse RAW264.7 assessed as inhibition of LPS-induced NO production incubated for 1 hrs followed by LPS stimulation for 18 hrs by Griess reagent based assay; assay type: functional, cell-based
THP-1 [4] = experiment: Cytotoxicity against human THP-1 cells derived macrophage assessed as reduction in cell viability upto 40 uM incubated for 24 hrs by CCK-8 assay; assay type: toxicity, cell-based; conditions: thp-1, 24 h

Compound | Activity (RAW264.7 [1]) | Activity (THP-1 [2]) | Activity (J774.1) | IC50 (RAW264.7 [3]) [µM] | Activity (THP-1 [4])
CC(=O)O[C@@H]1C[C@H]2C(C)(C)C(=O)C=C[C@]2(C)[C@H]2CC[C@@]3(C)[C@@H](c4ccoc4)OC(=O)[C@H]4O[C@]43[C@@]21C | Toxic | Active | Toxic | 8.85 | Toxic
CNC(=N)NCCC[C@H](N)C(=O)O [TILARGININE] |  |  |  | 44.4 | 
